Patent publication US5116748A, “Process for the production of L-alanine dehydrogenase from 78-3 FERM BP-2517” (Toyo Jozo Kabushiki Kaisha, priority 1988, dated 1992)
Where two headings read alike, the source gives them in different places.

System: L-alanine dehydrogenase from Sporolactobacillus sp. 78-3 (FERM BP-2517)
Test: Km-Value of L-alanine dehydrogenase (reductive amination, decrease of NADH at 340 nm)
Assay type: biochemical
Conditions: purified enzyme
Description: Enzyme activity is measured by the following assay method:
The reaction mixture, 1 ml, in a 1 ml quartz cell is pre-incubated at 37° C. for 5 mins. Dilute enzyme solution, 0.02 ml with 50 mM triethanolamine buffer (pH 8.5) is added thereto and the mixture is stirred to initiate the reaction. Decrease of NADH is measured photometrically at 340 nm during the reaction. Enzyme activity is calculated by the following equation on the linear part of the curve: [formula] wherein T=reaction time (min.); X=dilution ratio.

| SMILES | Km (coenzyme NADH, read-out: Km-Value (NADH)) | Km (substrate NH4+, read-out: Km-Value (NH4+)) |
| --- | --- | --- |
| NC(=O)C1=CN([C@@H]2O[C@H](COP(=O)(O)OP(=O)(O)OC[C@H]3O[C@@H](n4cnc5c(N)ncnc54)[C@H](O)[C@@H]3O)[C@@H](O)[C@H]2O)C=CC1 [NADH] | 0.011 mM | – |
| N [NH4^+] | – | 20 mM |
